{"source": "patent EP2719375A1", "about": "“Cannabinoids for the treatment of cancers dependent on hedgehog mechanisms” (Max-Planck-Gesellschaft zur Förderung der Wissenschaften …, priority 2012, dated 2014)", "key": {"[1]": {"system": "Shh signaling in ShhLIGHT2 cells", "assay": "ShhLIGHT2 signaling assay (Gli-responsive Firefly:Renilla luciferase ratio)", "type": "cell-based, mammalian", "settings": "for effect on signaling in ShhLIGHT2 cells (pure compounds, column fractions): cells stimulated with non-lipoprotein-associated Shh; for inhibits Shh signaling: at 30µM", "method": "HeLa cells were passaged in DMEM with 10% fetal bovine serum (FBS, Gibco), 50 U/ml penicillin and 50µg/ml streptomycin (Gibco). To prepare non-lipoprotein-associated Shh, HeLa cells were transfected with plasmids encoding human Shh using polyethylenimine (Polysciences) in OptiMem (Invitrogen), then switched Shh-transfected HeLa cells to serum-free media (DMEM +1% Insulin-Transferrin-Selenium mixture (ITS-X, Gibco) 4 h post transfection. After 48 h, conditioned media were centrifuged at 1000 g for 20 min and concentrated using Amicon Ultra -10K (Millipore) for use in the signaling assay. Identically treated media from nontransfected HeLa cells were used as controls.\nShh-LIGHT2 cells (Taipale et al., 2000) were maintained in DMEM + 10% FBS, 150 µg/ml zeocin (Invitrogen) and 400 µg/ml G418 (Invitrogen). 24 h prior to assay, cells were plated at […] in 96-well plates. Cells were then switched to a serum-free medium consisting of DMEM + 1% ITS-X, and supplemented with combinations of Shh and different lipids. Lipids were added in DMSO. Luciferase activity was assayed in cell lysates after 24 h, as instructed by the manufacturer (Dual Glo Luciferase Assay, Promega)."}, "Smo": {"target": "T1, Smo (Drosophila melanogaster, UniProt P91682)", "T1 construct": "from tissue; host or cells: explanted wing imaginal discs from wild type and LppRNAi Drosophila larvae", "T1 sequence (P91682 32-1036)": "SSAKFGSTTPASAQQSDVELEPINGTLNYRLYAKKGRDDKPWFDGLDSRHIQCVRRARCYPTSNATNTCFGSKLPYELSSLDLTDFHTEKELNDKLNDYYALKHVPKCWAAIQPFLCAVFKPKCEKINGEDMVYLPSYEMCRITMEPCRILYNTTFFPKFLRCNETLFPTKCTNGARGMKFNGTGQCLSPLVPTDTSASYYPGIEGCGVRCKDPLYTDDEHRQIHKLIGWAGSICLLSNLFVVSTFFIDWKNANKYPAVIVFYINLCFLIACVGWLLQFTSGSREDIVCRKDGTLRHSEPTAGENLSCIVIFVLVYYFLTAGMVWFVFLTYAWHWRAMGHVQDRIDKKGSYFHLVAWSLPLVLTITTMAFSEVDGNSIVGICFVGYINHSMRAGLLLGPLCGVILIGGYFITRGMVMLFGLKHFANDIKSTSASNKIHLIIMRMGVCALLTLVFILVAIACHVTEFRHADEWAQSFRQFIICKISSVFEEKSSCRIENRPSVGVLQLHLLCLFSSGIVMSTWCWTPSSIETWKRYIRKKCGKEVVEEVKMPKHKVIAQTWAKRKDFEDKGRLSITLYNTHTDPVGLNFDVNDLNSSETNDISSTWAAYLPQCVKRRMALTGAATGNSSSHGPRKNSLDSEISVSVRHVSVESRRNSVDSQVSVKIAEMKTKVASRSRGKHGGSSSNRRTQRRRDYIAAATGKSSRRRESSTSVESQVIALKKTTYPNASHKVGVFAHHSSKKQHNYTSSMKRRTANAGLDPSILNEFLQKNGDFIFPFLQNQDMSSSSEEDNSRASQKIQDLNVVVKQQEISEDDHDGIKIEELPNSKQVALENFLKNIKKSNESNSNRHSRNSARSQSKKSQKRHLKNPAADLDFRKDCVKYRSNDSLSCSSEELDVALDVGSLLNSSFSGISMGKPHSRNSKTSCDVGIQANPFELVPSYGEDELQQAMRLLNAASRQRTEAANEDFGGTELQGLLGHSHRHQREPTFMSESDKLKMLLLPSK", "assay": "Drosophila wing disc assay, Smo staining", "settings": "for ectopic Smo accumulation / stabilization: LppRNAi wing discs, DOPC liposomes, 2 hours; for effects on Hh signaling in Drosophila: wing discs, judged from Smo and Ci155 accumulation", "method": "(§1) Imaginal discs were fixed and stained as previously described (Marois et al., 2006). Antibodies were diluted as follows: anti-Ci 2A1 1:10 (Wang and Holmgren, Development, 126(22): p. 5097-106 (1999)), anti-Smo 1:50 (Lum et al., Mol Cell, 12(5): p. 1261-74 (2003)).\n(§2) All quantified immunostaining was performed on discs that were dissected, fixed, stained and imaged in parallel using the same microscope settings. To quantify Ci155 and Smo staining intensities, three apical sections 0.7 µm apart were projected using maximal intensity in ImageJ. For each image, two rectangles of 100 pixels parallel to the A/P axis by 351 pixels parallel to the D/V axis were selected and centered at the A/P boundary in ventral and dorsal compartments. Average pixel intensity was determined as a function of distance from A/P boundary using PlotProfile and plotted using Microsoft Excel. All A/P boundaries were determined according to anti-Ci155 coimmunostaining. To estimate the significance of changes in staining intensities in discs of different genotypes, we measured Smo or Ci staining intensity at the same distance from the A/P boundary in each disc and calculated p values using Excel.\n(§3) The assay was performed as previously described (Khaliullina et al., Development, 136(24): p. 4111-21 (2009)). Endocannabinoids were applied in DOPC vesicles at concentrations of up to 200µM."}, "Ci155": {"system": "Ci155", "assay": "Drosophila wing disc assay, Ci155 staining", "settings": "LppRNAi wing discs, DOPC liposomes, 2 hours", "method": "as §1, §2, §3"}, "[2]": {"settings": "Shh Light2, ShhLIGHT2 cells stimulated with Shh, serum-free medium, lipid added in DMSO, luciferase after 24 h, read-out: EC50 (inhibits Shh signaling)"}, "[3]": {"settings": "Shh Light2, 24 h, read-out: EC50 (inhibits Shh signaling)"}}, "note": "Entries after “also recorded” stand apart in the source; their conditions may differ. Like-named read-outs stand apart in the source and are kept apart here."}
{"compound": "C=C1CC[C@H](O)C/C1=C/C=C1\\CCC[C@]2(C)[C@@H]([C@H](C)CCCC(C)C)CC[C@@H]12", "note": "[vitamin D3, reference compound]", "values": [{"measurement": "effect on signaling in ShhLIGHT2 cells (pure compounds, column fractions)", "setting": "[1]", "value": "inhibited signaling"}, {"measurement": "ectopic Smo accumulation / stabilization", "setting": "Smo", "value": "neither reversed Smo accumulation"}]}
{"compound": "CCCCCCCC/C=C\\CCCCCCCC(=O)NCCO", "note": "[N-acylethanolamide (18:1)]", "values": [{"measurement": "ectopic Ci155 accumulation", "setting": "Ci155", "value": "not decreased"}, {"measurement": "ectopic Smo accumulation / stabilization", "setting": "Smo", "value": "not decreased"}]}
{"compound": "CCCCCCCCCCCCCCCCCC(=O)NCCO", "note": "[N-acylethanolamide (18:0)]", "values": [{"measurement": "ectopic Ci155 accumulation", "setting": "Ci155", "value": "not decreased"}, {"measurement": "ectopic Smo accumulation / stabilization", "setting": "Smo", "value": "not decreased"}]}
{"compound": "CCCCCCCCCCCCCCCC(=O)NCCO", "note": "[N-acylethanolamide (16:0)]", "values": [{"measurement": "ectopic Ci155 accumulation", "setting": "Ci155", "value": "partially reverses Ci155 accumulation; also recorded: significantly reverses ectopic accumulation of Ci155"}, {"measurement": "ectopic Smo accumulation / stabilization", "setting": "Smo", "value": "reverses ectopic Smo stabilization; also recorded: completely reverses ectopic accumulation of Smo"}, {"measurement": "effects on Hh signaling in Drosophila", "setting": "Smo", "value": "strong negative effects"}]}
{"compound": "CCCCC/C=C\\C/C=C\\C/C=C\\C/C=C\\CCCCOC(CO)CO", "note": "[2-glyceryl ether (20:4), 2-arachidonyl glyceryl ether]", "values": [{"measurement": "EC50", "setting": "[1]; [2]", "value": 15, "unit": "µM"}, {"measurement": "inhibits Shh signaling", "setting": "[1]", "value": "almost completely"}, {"measurement": "ectopic Ci155 accumulation", "setting": "Ci155", "value": "no activity"}, {"measurement": "ectopic Smo accumulation / stabilization", "setting": "Smo", "value": "no activity"}, {"measurement": "effects on Hh signaling in Drosophila", "setting": "Smo", "value": "complete inactivity"}]}
{"compound": "CCCCC/C=C\\C/C=C\\CCCCCCCC(=O)NCCO", "note": "[N-acylethanolamide (18:2), linoleylethanolamide]", "values": [{"measurement": "EC50 decreased by addition of FAAH inhibitor", "setting": "[1]", "value": "> 10", "unit": "fold"}, {"measurement": "EC50 decreased by pre-incubation with lipoproteins", "setting": "[1]", "value": "> 10", "unit": "fold"}, {"measurement": "EC50", "setting": "[1]; [3]", "value": "~15", "unit": "µM"}, {"measurement": "EC50", "setting": "[1]; Shh Light2, in presence of PF-3845, a selective FAAH inhibitor, read-out: EC50", "value": 0.5, "unit": "µM"}, {"measurement": "inhibits Shh signaling", "setting": "[1]", "value": "almost completely"}, {"measurement": "EC50 decreased by pre-incubation with lipoproteins", "setting": "[1]; pre-incubated with lipoproteins versus added in DMSO without prior incubation", "value": "more than 10 fold"}]}
{"compound": "C=C(C)[C@@H]1CCC(C)=C[C@H]1c1c(O)cc(CCCCC)cc1O", "note": "[cannabidiol]", "values": [{"measurement": "EC50", "setting": "[1]; [2]", "value": "< 1", "unit": "µM"}]}
{"compound": "CCCCCCCCCCCCCCCCCC(=O)NCCc1ccc(O)c(O)c1", "note": "[N-acyl dopamine (18:0)]", "values": [{"measurement": "EC50", "setting": "[1]; [3]", "value": 5, "unit": "µM"}, {"measurement": "inhibition at 30 µM", "setting": "[1]; Shh Light2, read-out: inhibits Shh signaling by", "value": 80, "unit": "%"}]}
{"compound": "CCCCC/C=C\\C/C=C\\C/C=C\\C/C=C\\CCCC(=O)NCCO", "note": "[N-acylethanolamide (20:4), arachidonyl ethanolamide]", "values": [{"measurement": "ectopic Ci155 accumulation", "setting": "Ci155", "value": "not decreased"}, {"measurement": "ectopic Smo accumulation / stabilization", "setting": "Smo", "value": "not decreased"}]}
{"compound": "CCCCCc1cc(O)c2c(c1)OC(C)(C)c1ccc(C)cc1-2", "note": "[cannabinol]", "values": [{"measurement": "EC50", "setting": "[1]; [2]", "value": "< 1", "unit": "µM"}]}
{"compound": "CC(C)CCC[C@@H](C)[C@H]1CC[C@H]2C3=CC=C4C[C@@H](O)CC[C@]4(C)[C@H]3CC[C@]12C", "note": "[7-dehydrocholesterol, reference compound]", "values": [{"measurement": "effect on signaling in ShhLIGHT2 cells (pure compounds, column fractions)", "setting": "[1]", "value": "inhibited signaling"}, {"measurement": "ectopic Smo accumulation / stabilization", "setting": "Smo", "value": "neither reversed Smo accumulation"}]}
{"compound": "CCCCCCCCCCCCCCCC(=O)NC(CO)C(=O)O", "note": "(centres unmarked) [N-acyl serine (16:0)]", "values": [{"measurement": "EC50", "setting": "[1]; Shh Light2, ShhLIGHT2 cells stimulated with Shh, serum-free medium, lipid added in DMSO, read-out: EC50 (increases Shh signaling)", "value": 0.5, "unit": "µM"}, {"measurement": "increases Shh signaling by", "setting": "[1]; Shh-induced Firefly:Renilla increase normalized to 100", "value": 40, "unit": "%"}, {"measurement": "effect on signaling in ShhLIGHT2 cells (pure compounds, column fractions)", "setting": "[1]", "value": "stimulated signaling"}, {"measurement": "ectopic Ci155 accumulation", "setting": "Ci155", "value": "no activity"}, {"measurement": "ectopic Smo accumulation / stabilization", "setting": "Smo", "value": "no activity"}]}
{"compound": "CCCCCCCCCCCCCCCC(=O)NCCc1ccc(O)c(O)c1", "note": "[N-acyl dopamine (16:0)]", "values": [{"measurement": "ectopic Ci155 accumulation", "setting": "Ci155", "value": "no activity"}, {"measurement": "ectopic Smo accumulation / stabilization", "setting": "Smo", "value": "no activity"}]}
